Measurements reported in patent publication US11535633B2, “Fused tricyclic heterocycle compounds and therapeutic uses thereof” (Jiangsu Hengrui Medicine Co., Ltd., priority 2018, dated 2022).

What was measured:
Human PBMC cells = assay: IFNβ secretion in human PBMC; assay type: cell-based; settings: IFNβ in supernatant by ELISA, 5 hours incubation
Method: Test Example 3. IFNβ Secretion in Human PBMC
• 1. Human PBMC cells (STEMCELL Technologies) • 2. Lymphocyte Medium (Zenbio) • 3. Culture and compound dilution media: RPMI with high glucose and glutamine (Genesee, Cat. #25-506), 10% fetal bovine serum (Life Technologies, Cat. #10082147), 100 μg/ml Normocin (InvivoGen, Cat. #ant-nr-2) and Penicillin-Streptomycin (100×) (Life Technologies, Cat. #15140122) • 4. Human IFNβ Quantikine ELISA kit (R&D systems) • 5. Infinite M1000 plate reader (TECAN) Experimental Procedure
Cryopreserved peripheral blood human mononuclear cells (PBMCs) were rapidly thawed and resuspended in Lymphocyte Media and centrifuged at 500×g for 5 minutes. The supernatant was removed and the cell pellets were gently resuspended in cell culture and compound dilution media. Human PBMC cells were plated in a 96-well format at a concentration of 1.5×10^5 cells per well. The test compounds, at varying concentrations, or vehicle control (<0.3% DMSO) were mixed with the cells giving a final volume of 150 μl per well. The plates were incubated for 5 hours in a humidified, 5% CO2 incubator at 37° C. After incubation, the human IFNβ in the supernatant and the IFNβ standard controls were measured using human IFNβ Quantikine ELISA kit according to the manufacturer's protocol. The absorbance at 450 nm was measured with Infinite M1000 plate reader and corrected by background reading at 540 nm of each well. The amount of […] based on the standard curves. The plot of IFNβ concentration versus the log of compound concentration was fit in GraphPad Prism with a 4-parameter concentration response equation to calculate EC50 and Emax.

[1] = biological target: T1, hSTING c-terminal domain (purified hSTING aa154-342) (Homo sapiens, UniProt Q86WV6); assay: Thermal shift assay for measuring the relative binding affinity to hSTING c-terminal domain; settings: Tm of sample minus mean Tm of negative control (buffer, 2% DMSO), SYPRO Orange
T1 construct: Purified hSTING (aa154-342)
Method: Test Example 1. Thermal Shift Assay for Measuring the Relative Binding Affinity to hSTING c-Terminal Domain
From each of the 10 mM stock solutions of compounds in DMSO, dilutions are made to create samples with three concentrations 10 mM, 5 mM and 2.5 mM. From these dilutions a final 50 fold dilution is made into assay buffer, giving concentrations of 200 μM, 100 μM, and 50 μM. From each of the buffer dilutions, 5 μL is added to the 384 well assay plate. A positive control is setup with cGAMP using the same dilution scheme as the ligands. A baseline thermal shift for the negative control is determined using buffer and 2% DMSO.
An aliquot of protein is thawed on ice and SYPRO orange reagent is brought to room temperature. The 5000× SYPRO orange stock is diluted in assay buffer to a concentration of 10×. Protein is diluted to a concentration of 10 μM in the prepared buffer/dye solution. Five micro-liters of protein/buffer/dye solution is added to each of the sample and control wells, and the plate is sealed with the provided films. The plate is centrifuged for 5 min at 20° C. at 1000 rpm.
On the Light Cycler instrument, measurements are made over a temperature gradient from 20° C. to 99° C. at 0.07° C./s and data acquisitions collected at a rate of 8/° C. is used to measure the change in fluorescence as a function of temperature. Data analysis is performed using the Roche Light Cycler Software to determine the melting temperature (Tm ° C.) of each sample. A mean Tm ° C. for the negative control is calculated and subtracted from each of the samples to generate the ΔTm ° C. values for each of the ligands.
The relative binding affinity to hSTING c-terminal domain of the compounds of the present invention was determined by the above assay, and ΔTm ° C. values are shown in the following table 1.

[2] = biological target: T2, STING in THP1-Dual KI-hSTING-R232 cells (Homo sapiens, UniProt Q86WV6, H232R); assay: Human THP1 reporter cell assay (IRF luciferase reporter); assay type: cell-based; settings: 24 hours incubation
T2 construct: host or cells: THP1-Dual KI-hSTING-R232 cells (human monocytic THP-1 reporter line)
Method: Test Example 2. Human THP1 Reporter Cell Assay
• 1. Human THP1-Dual KI-hSTING-R232 Cells (InvivoGen, Cat. #thpd-r232) • 2. QUANTI-LUC (InvivoGen, Cat. #rep-qlc2) • 3. Media for cell culture and compound dilution: RPMI with high glucose and glutamine (Genesee, Cat. #25-506), 10% fetal bovine serum (Life Technologies, Cat. #10082147), 25 mM HEPES (Genesee, Cat. #25-534), 100 μg/ml Normocin (InvivoGen, Cat. #ant-nr-2), 10 μg/ml blasticidin (InvivoGen, Cat. #ant-bl-05), 100 μg/ml Zeocin (InvivoGen, Cat. #ant-zn-5p) and Penicillin-Streptomycin (100×) (Life Technologies, Cat. #15140122) • 4. Infinite M1000 plate reader (TECAN) Experimental Procedure
Activation of STING in THP1-Dual KI-hSTING-R232 cells was determined by measuring the luminescence signal resulting from the expression of the IRF luciferase reporter gene. All reagent preparation and assay procedures were conducted according to the protocols provided by InvivoGen. In brief, test compounds and cells (1×10^5 cells per well) were dispensed into 96-well plates with a final volume per well of 150 μl. Plates were incubated in a humidified, 5% CO2 incubator at 37° C. for 24 hours. The expression level of the reporter gene was measured by transferring 20 μl of the supernatant to a non-transparent 96-well plate to which 50 μl of QUANTI-LUC was dispensed into each well. The resulting luminescence signal was immediately read using a TECAN plate reader. The background luminescence signal from media was subtracted. The fold induction effect of the luminescence signal at each compound concentration was determined relative to controls that lack compound treatment. The plot of fold induction effect versus the log of compound concentration was fit in GraphPad Prism with a 4-parameter concentration response equation to calculate EC50 and Emax.
Activation of STING in THP1 of the compounds in the present invention was determined by the above assay, and EC50 values are shown in the following table 2.

T2 sequence (Q86WV6 whole entry H232R): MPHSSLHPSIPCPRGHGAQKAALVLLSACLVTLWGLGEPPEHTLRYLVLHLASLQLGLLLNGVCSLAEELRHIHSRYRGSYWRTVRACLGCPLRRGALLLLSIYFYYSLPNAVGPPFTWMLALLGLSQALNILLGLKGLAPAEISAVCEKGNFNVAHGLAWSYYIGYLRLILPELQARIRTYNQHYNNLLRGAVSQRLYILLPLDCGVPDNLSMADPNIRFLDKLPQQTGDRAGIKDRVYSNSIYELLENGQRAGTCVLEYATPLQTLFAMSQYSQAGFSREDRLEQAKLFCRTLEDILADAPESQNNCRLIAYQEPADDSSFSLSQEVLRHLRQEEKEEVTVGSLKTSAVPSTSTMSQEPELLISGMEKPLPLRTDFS
T1 sequence (Q86WV6 154-342): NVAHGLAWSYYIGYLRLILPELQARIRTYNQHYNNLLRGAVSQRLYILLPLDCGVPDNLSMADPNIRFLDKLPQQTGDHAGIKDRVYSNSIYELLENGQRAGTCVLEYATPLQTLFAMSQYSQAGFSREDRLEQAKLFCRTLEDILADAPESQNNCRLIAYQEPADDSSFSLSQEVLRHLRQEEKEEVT

ΔTm at 100 µM [1] [°C]	EC50 [2] [nM]	Compound	EC50 (Human PBMC cells) [nM]
5.7	1600	C=CC[C@H]1COc2cc(C(N)=O)cc3nc(NC(=O)c4cc(C)nn4CC)n1c23 [Example 1, (S)-3-allyl-2-(1-ethyl-3-methyl-1H-pyrazole-5-carboxamido)-3,4-dihydro-5-oxa-1,2a-diazaacenaphthylene-7-carboxamide]	1100
2.9	3000	CC=CCC1COc2cc(C(N)=O)cc3nc(NC(=O)c4cc(C)nn4CC)n1c23 (stereo not shown) [Example 5, 3-(but-2-en-1-yl)-2-(1-ethyl-3-methyl-1H-pyrazole-5-carboxamido)-3,4-dihydro-5-oxa-1,2a-diazaacenaphthylene-7-carboxamide]	2000
	1300	C/C=C\C[C@H]1COc2cc(C(N)=O)cc3nc(NC(=O)c4cc(C)nn4CC)n1c23 [Example 5-2, (S,Z)-3-(but-2-en-1-yl)-2-(1-ethyl-3-methyl-1H-pyrazole-5-carboxamido)-3,4-dihydro-5-oxa-1,2a-diazaacenaphthylene-7-carboxamide]	1900
	1300	C/C=C/C[C@H]1COc2cc(C(N)=O)cc3nc(NC(=O)c4cc(C)nn4CC)n1c23 [Example 5-3, (S,E)-3-(but-2-en-1-yl)-2-(1-ethyl-3-methyl-1H-pyrazole-5-carboxamido)-3,4-dihydro-5-oxa-1,2a-diazaacenaphthylene-7-carboxamide]	1500
5.5		C=CC[C@H]1COc2cc(C(N)=O)cc3nc(NC(=O)c4cc(C)nn4CCC)n1c23 [Example 11, (S)-3-allyl-2-(3-methyl-1-propyl-1H-pyrazole-5-carboxamido)-3,4-dihydro-5-oxa-1,2a-diazaacenaphthylene-7-carboxamide]	17000
4		CCn1nc(C)cc1C(=O)Nc1nc2cc(C(N)=O)cc(OC)c2n1CC=C[C@H]1COc2cc(C(N)=O)cc3nc(NC(=O)c4cc(C)nn4CC)n1c23 [Example 14, (S)-3-(3-(5-carbamoyl-2-(1-ethyl-3-methyl-1H-pyrazole-5-carboxamido)-7-methoxy-1H-benzo[d]imidazol-1-yl)prop-1-en-1-yl)-2-(1-ethyl-3-methyl-1H-pyrazole-5-carboxamido)-3,4-dihydro-5-oxa-1,2a-diazaacenaphthylene-7-carboxamide]	1800
3		CCn1nc(C)cc1C(=O)Nc1nc2cc(C(N)=O)cc(OC)c2n1C/C=C/C[C@H]1COc2cc(C(N)=O)cc3nc(NC(=O)c4cc(C)nn4CC)n1c23 [Example 15, (S,E)-3-(4-(5-carbamoyl-2-(1-ethyl-3-methyl-1H-pyrazole-5-carboxamido)-7-methoxy-1H-benzo[d]imidazol-1-yl)but-2-en-1-yl)-2-(1-ethyl-3-methyl-1H-pyrazole-5-carboxamido)-3,4-dihydro-5-oxa-1,2a-diazaacenaphthylene-7-carboxamide]	19000
	160	CCn1nc(C)cc1C(=O)Nc1nc2cc(C(N)=O)ccc2n1CCC[C@H]1COc2cc(C(N)=O)cc3nc(NC(=O)c4cc(C)nn4CC)n1c23 [Example 18, (S)-3-(3-(5-carbamoyl-2-(1-ethyl-3-methyl-1H-pyrazole-5-carboxamido)-1H-benzo[d]imidazol-1-yl)propyl)-2-(1-ethyl-3-methyl-1H-pyrazole-5-carboxamido)-3,4-dihydro-5-oxa-1,2a-diazaacenaphthylene-7-carboxamide]	300
		CCn1nc(C)cc1C(=O)Nc1nc2cc(C(N)=O)cc(OCCCO)c2n1CCC[C@H]1COc2cc(C(N)=O)cc3nc(NC(=O)c4cc(C)nn4CC)n1c23 [Example 19, (S)-3-(3-(5-carbamoyl-2-(1-ethyl-3-methyl-1H-pyrazole-5-carboxamido)-7-(3-hydroxypropoxy)-1H-benzo[d]imidazol-1-yl)propyl)-2-(1-ethyl-3-methyl-1H-pyrazole-5-carboxamido)-3,4-dihydro-5-oxa-1,2a-diazaacenaphthylene-7-carboxamide]	700
	100	CCn1nc(C)cc1C(=O)Nc1nc2cc(C(N)=O)cc(OCCCN3CCOCC3)c2n1CCC[C@H]1COc2cc(C(N)=O)cc3nc(NC(=O)c4cc(C)nn4CC)n1c23 [Example 22, (S)-3-(3-(5-carbamoyl-2-(1-ethyl-3-methyl-1H-pyrazole-5-carboxamido)-7-(3-morpholinopropoxy)-1H-benzo[d]imidazol-1-yl)propyl)-2-(1-ethyl-3-methyl-1H-pyrazole-5-carboxamido)-3,4-dihydro-5-oxa-1,2a-diazaacenaphthylene-7-carboxamide]	340
12	350	CCn1nc(C)cc1C(=O)Nc1nc2cc(C(N)=O)cc(OCCCN(C)C)c2n1CCC[C@H]1COc2cc(C(N)=O)cc3nc(NC(=O)c4cc(C)nn4CC)n1c23 [Example 24, (S)-3-(3-(5-carbamoyl-7-(3-(dimethylamino)propoxy)-2-(1-ethyl-3-methyl-1H-pyrazole-5-carboxamido)-1H-benzo[d]imidazol-1-yl)propyl)-2-(1-ethyl-3-methyl-1H-pyrazole-5-carboxamido)-3,4-dihydro-5-oxa-1,2a-diazaacenaphthylene-7-carboxamide]	
13	500	C=CCOc1cc(C(N)=O)cc2nc(NC(=O)c3cc(C)nn3CC)n(CCC[C@H]3COc4cc(C(N)=O)cc5nc(NC(=O)c6cc(C)nn6CC)n3c45)c12 [Example 25, (S)-3-(3-(7-(allyloxy)-5-carbamoyl-2-(1-ethyl-3-methyl-1H-pyrazole-5-carboxamido)-1H-benzo[d]imidazol-1-yl)propyl)-2-(1-ethyl-3-methyl-1H-pyrazole-5-carboxamido)-3,4-dihydro-5-oxa-1,2a-diazaacenaphthylene-7-carboxamide]	
